Data: patent publication US8771953B2, “Evaluation of the potential risk of drug induced mood disturbance and suicide: use of a dedicated platform” (Biocortech, priority 2008, dated 2014)
Read-outs that look alike come from different tables or passages of the source.

What was measured:
ADAR1b mRNA = experiment: Q-PCR of ADAR1b mRNA expression in SH-SY5Y cells; assay type: cell-based; conditions: Homo sapiens, 10 micromolar, 24 hours, read-out: QPCR: RNA expresion (% of variation) ADAR1b
Protocol: (§1) The SH-SY5Y Human neuroblastoma cell line was purchased from ECACC (EC94030304 from the European Collection of Cell Cultures (ECACC)). The cell line SH-SY5Y is a thrice-cloned neuroblastoma, originally from SK-N-SH and first reported in 1978. A neuroblast-like subclone of SK-N-SH, named SH-SY, was subcloned as SH-SY5, which was subcloned again as SH-SY5Y (Biedler J L et al. Cancer Res. 1978; 38:3751-7). Cells were cultured in high glucose D-MEM medium (Sigma, ref D6546) supplemented with 10% dialysed FCS (PAA, ref. A15-507, lot A50708-0050), 2 mM Glutamine (Sigma, G7513) and a 1× mix of Antibiotic-Antimycotic Stabilized (Sigma, ref. A5955) at 37° C. under a humidified atmosphere of 5% CO2. The day preceeding drug or hIFNα treatment, SH-SY5Y cells were plated in 6-well plates at a density of 10^6 cells/well. One 6-well plate was used per experimental condition (concentration or treatment duration). The day after plating, culture medium was removed and cells were incubated for 24 hours with a 10 μM solution of the compound to be tested molecules or a 1000 IU/ml solution of hIFNα (PBL biomedical laboratories). For hIFNα dose-response experiment cells were incubated with 1, 10, 100, and 1000 IU/ml of hIFNα solutions. For hIFNα time-course experiment cells were treated for 24, 48, or 72 hours with a 1000 IU/ml solution of hIFNα. After the different treatments, cells were directly lysed in RLT lysis buffer and total RNA purified according to manufacturer's protocol (Qiagen, RNeasy Plus mini kit, ref. 74134). Total RNA was then reverse transcribed with Thermoscript RT-PCR system Plus Taq (Invitrogen, 11146-032) and the resulting cDNA used for CE-SSCP and quantitative real-time PCR.
(§2) In order to quantify levels of 5-HT2CR, ADAR1 and ADAR2 mRNA expression in SH-SY5Y cells or in prefrontal cortex, total blood and skin of Balb/cJ mice, first-strand cDNA was synthesized by reverse transcription and subjected to TaqMan quantitative real-time PCR analysis (Applied Biosystems). All probes and primers used for the quantitative PCRs were from Applied Bio systems (Gene Expression Assays, Assay-On-Demand) (see Table 1, Applied Biosystems primers and probes references): […]
(§3) Human GAPDH (product no. 4326317E; Applied Biosystems) or mouse GAPDH (product no. 4352339E; Applied Biosystems) were included in each multiplex PCR as an internal control. Real-time PCR and subsequent analysis were performed with a 48-well block StepOne RT PCR system (Applied Biosystems). Quantification of target gene expression in all samples was normalized to GAPDH expression by the equation Ct (target)−Ct (GAPDH)=ΔCt, where Ct is the threshold cycle number. The mean ΔCt value of samples from untreated mice or cells was determined and used as a reference point for the samples corresponding to treated animals or cells. Differences between untreated and treated animals or cells, including individual variation were calculated by the equation (ΔCt (individual treated samples)−ΔCt (mean of untreated samples)=ΔΔCt). Changes in target gene expression (n-fold) in each sample were calculated by 2^−ΔΔCt, from which the means and standard deviations (SD) were derived.
(§4) The SH-SY5Y Human neuroblastoma cell line was purchased from ECACC. Cells were cultured in high glucose D-MEM medium (Sigma, ref. D6546) supplemented with 10% dialysed FCS (PAA, ref. A15-507, lot A50708-0050), 2 mM Glutamine (Sigma, ref. G7513) and a 1× mix of Antibiotic-Antimycotic Stabilized (Sigma, ref. A5955) at 37° C. under a humidified atmosphere of 5% CO2. The day preceeding hIFNα or drug treatment, SH-SY5Y cells were plated in 6-well plates (Corning, Multiwell Plate, 6 well, Corning CellBIND Surface, ref 3335) at a density of 5; 7 or 9·10^6 cells/well for a 72-, 48- or 24-hour treatment respectively. Six or eight wells of 6-well plates were used per experimental condition (control, concentration or treatment duration).

ADAR2 mRNA = experiment: Q-PCR of ADAR2 mRNA expression in SH-SY5Y cells; assay type: cell-based; conditions: Homo sapiens, 10 micromolar, 24 hours, read-out: QPCR: RNA expresion (% of variation) ADAR2
Protocol: as §1, §2, §3, §4

ADAR1a mRNA = experiment: Q-PCR of ADAR1a mRNA expression in SH-SY5Y cells; assay type: cell-based; conditions: Homo sapiens, 10 micromolar, 24 hours, read-out: QPCR: RNA expresion (% of variation) ADAR1a
Text: ADAR1a RNA Expression in SH-SY5Y cells (Q-PCR, Applied TaqMan probes ref: Hs 01020780_m1).
as §1, §2, §3, §4

5-HT2cR mRNA = experiment: Editing profile of 5-HT2cR mRNA isoforms by CE-SSCP (nested PCR) in SH-SY5Y cells; enzyme activity indexes worked out from the profile; assay type: cell-based, human; conditions: Homo sapiens, SH-SY5Y

Compound	percent change in mRNA expression at 10 µM (ADAR1b mRNA)	percent change in ADAR2 mRNA expression at 10 µM (ADAR2 mRNA)	% change in ADAR1a mRNA expression at 10 µM (ADAR1a mRNA)	activation at 10 µM (5-HT2cR mRNA; 24 h, read-out: ENZYME ACTIVIY INDEX (% of variation) ADAR1)	activation at 10 µM (5-HT2cR mRNA; 24 h, read-out: ENZYME ACTIVIY INDEX (% of variation) ADAR1 + 2)	activation at 10 µM (5-HT2cR mRNA; 24 h, read-out: ENZYME ACTIVIY INDEX (% of variation) ADAR2)	activation at 10 µM (5-HT2cR mRNA; 24 h, read-out: ENZYME ACTIVIY INDEX (% of variation) ADARI)	activation at 10 µM (5-HT2cR mRNA; 24 h, read-out: ENZYME ACTIVIY INDEX (% of variation) ADARII)	activation at 10 µM (5-HT2cR mRNA; 24 h, read-out: ENZYME ACTIVIY INDEX (% of variation) NE)	activation at 10 µM (5-HT2cR mRNA; 10 micromolar, 24 hours, read-out: ENZYME ACTIVIY INDEX (% of variation) ADAR1)	activation at 10 µM (5-HT2cR mRNA; 10 micromolar, 24 hours, read-out: ENZYME ACTIVIY INDEX (% of variation) ADAR1 + 2)	activation at 10 µM (5-HT2cR mRNA; 10 micromolar, 24 hours, read-out: ENZYME ACTIVIY INDEX (% of variation) ADAR2)	activation at 10 µM (5-HT2cR mRNA; 10 micromolar, 24 hours, read-out: ENZYME ACTIVIY INDEX (% of variation) ADARI)	activation at 10 µM (5-HT2cR mRNA; 10 micromolar, 24 hours, read-out: ENZYME ACTIVIY INDEX (% of variation) ADARII)	activation at 10 µM (5-HT2cR mRNA; 10 micromolar, 24 hours, read-out: ENZYME ACTIVIY INDEX (% of variation) NE)
CNCCCN1c2ccccc2CCc2ccccc21 [Desipramine]	-38%	-12%	29%	-8.6%	5.7%	15.5%	-6.6%	7.5%	5.9%	–	–	–	–	–	–
Nc1nnc(-c2cccc(Cl)c2Cl)c(N)n1 [Lamotrigine]	-26%	-32%	-26%	–	–	–	–	–	–	5.9%	-24.6%	-23%	0.1%	-24.3%	0.9%
